The test system of experiment [1] is Male Wistar rats. The experiment can be described thus: Carrageenin oedema test for anti-inflammatory activity. The class given is in vivo. The note with it: Rattus norvegicus, po, inhibitory rate, 100 mg/kg per os, paw volume 3 hours after carrageenin injection. As for the experimental part:
Details of certain of the pharmacological tests are as follows: • Carrageenin oedema test for anti-inflammatory activity
Male Wistar rats weighing 120-150 g were fasted overnight and then received a test compound per os as an aqueous tragacanth suspension. 30 minutes later, inflammation was induced by the subcutaneous injection of 0.05 ml of a 1% carrageenin suspension into the plantar tissue of a hind paw of each rat [Winter et al., Proc. Soc. Exp. Biol. Med., 111, 544 (1962)]. The anti-oedema activity was measured volumetrically, by assessing the response, as calculated from the following equation: [formula] where Vo and V represent, respectively, the paw volume immediately before and 3 hours after the carrageenin injection. The test compounds were administered at a dose of 100 mg/kg and the results are reported in the following Table as the inhibitory rate, that is the percentage inhibition of the […].
Background: Carrageenan injected into the paw causes an acute inflammation.

Experiment [2] concerns Male Wistar rats. As to the kind of experiment: Pain test for analgesic activity (modified Randall-Selitto, Brewers' yeast inflamed paw). The note with it: po; number of effective animals / total number of animals in group; 50 mg/kg orally; pain threshold 1 and 2 hours after administration; effective = at least twice mean pain threshold of controls. The class given is in vivo. As for the experimental part: Pain test for analgesic activity
This test was conducted according to a modification of the method reported by L.O. Randall and J.J. Selitto in Arch. Int. Pharmacodyn., 11, 409 (1959), proposed by Winter and Flatake (1957).
Male Wistar rats of 4 weeks of age and weighing 60-90 g were injected with 0.1 ml of a 20% by weight suspension of Brewers' yeast in the right hind paw. […] Each of these was given orally a test compound as an aqueous tragacanth suspension at a dose of 50 mg/kg. 1 and 2 hours after administration of the test compound, the pain threshold was determined by observing pain responses (such as struggling or squeaking) when the inflamed or normal paw was subjected to pressure by a machine (Ugo-Basile). […] The results are reported as the number of effective animals as a proportion of the total number of animals in each group.

In general, inhibition in vivo refers to the change of the read-out against control, counted positive when it falls.

In turn, `CC1=CC(C)(C)Nc2ccc(Oc3cccnc3)nc21` [compound 18, 2,2,4-trimethyl-6-(3-pyridyloxy)-1,2-dihydro-1,5-naphthyridine] had an inhibition in vivo at 100 mg/kg in experiment [1] of 76%. This compound gave a responders at 50 mg/kg in experiment [2] of 80%.
For `COc1ccc2c(n1)C(C)=CC(C)(C)N2C(C)=O` [Compound No. 27, 1-acetyl-6-methoxy-2,2,4-trimethyl-1,2-dihydro-1,5-naphthyridine] the same measures were 53.3% and 20%.
In the case of `COc1ccc2c(n1)C(C)=CC(C)(C)N2` [Compound No. 1, 6-methoxy-2,2,4-trimethyl-1,2-dihydro-1,5-naphthyridine], in experiment [1], testing at 100 mg/kg gave an inhibition in vivo of 62.6%. Moreover, the responders at 50 mg/kg in experiment [2] was 60%.
For `CCCCOc1ccc2c(n1)C(C)=CC(C)(C)N2` [Compound No. 4, 6-butoxy-2,2,4-trimethyl-1,2-dihydro-1,5-naphthyridine], in that order: 65.4% and 60%.
In experiment [1], `CCOc1ccc2c(n1)C(C)=CC(C)(C)N2` [Compound No. 2, 6-ethoxy-2,2,4-trimethyl-1,2-dihydro-1,5-naphthyridine] registered an inhibition in vivo at 100 mg/kg of 58.2%. The same compound had a responders at 50 mg/kg in experiment [2] of 20%.
For `CC1=CC(C)(C)Nc2ccc(Cl)nc21` [Compound No. 13, 6-chloro-2,2,4-trimethyl-1,2-dihydro-1,5-naphthyridine] the same measures were 56.6% and 60%.
For `COc1ccc2c(n1)C(C)=CC(C)(C)N2C` [Compound No. 25, 6-methoxy-1,2,2,4-tetramethyl-1,2-dihydro-1,5-naphthyridine] the same measures were 54.8% and 40%.
For `CC1=CC(C)(C)Nc2ccc(Oc3ccccc3)nc21` [Compound No. 5, 2,2,4-trimethyl-b-phenoxy-1,2-dihydro-1,5-naphthyridine], in that order: 53.6% and 60%.

For the origin of these results see EP0094245A2, “Dihydronaphthyridine derivatives, their preparation and compositions containing them” (SANKYO COMPANY LIMITED, priority 1982, dated 1983).
